In US9481910B2, “Methods and compositions for the detection of drug resistant BRAF isoforms” (MEMORIAL SLOAN-KETTERING CANCER CENTER, priority 2011, dated 2016):
Entries after “also recorded” stand apart in the source; their conditions may differ.

Assays:
p61 BRAF(V600E) [1] = biological target: T1, p61 BRAF(V600E) (Homo sapiens, UniProt P15056, DEL169-380/V600E); test: ERK signaling in 293H cells ectopically expressing p61 BRAF(V600E); type: cell-based; conditions: 293H cells expressing p61 BRAF(V600E), 2 μM for 1 hour
Description: (§1) The BRAF inhibitor, PLX403219 (vemurafenib) was obtained from Plexxikon Inc. PD0325901 was synthesized in the MSKCC Organic Synthesis Core Facility. Flag-tagged BRAF constructs have been described previously4. All other plasmids were created using standard cloning methods, with pcDNA3.1 (Invitrogen) as a vector. Mutations were introduced using the site-directed Mutagenesis Kit (Stratagene). For transfection studies, cells were seeded on 35 mm or 100 mm plates and transfected the following day using Lipofectamine 2000 (Invitrogen). Cells were collected 24 hours later for subsequent analysis. cDNA Preparation and PCR.

p61 BRAF(V600E) [2] = biological target: T1, p61 BRAF(V600E); test: In vitro kinase assay of immunoprecipitated V5-tagged p61 BRAF(V600E), inactive MEK(K97R) as substrate; type: biochemical; conditions: 200 μM ATP, 30° C., 20 min
Description: V5-tagged full length BRAF(V600E) or V5-tagged p61 BRAF(V600E) were ectopically expressed in 293H cells. 24 hours later, cells were harvested, lysed and BRAF was immunoprecipitated using a V5 antibody. […] Kinase activity was estimated by western blot for pMEK.
Immunoprecipitations and kinase assays. Cells were lysed in lysis buffer (50 mM Tris, pH7.5, 1% NP40, 150 mM NaCl, 10% glycerol, 1 mM EDTA) supplemented with protease and phosphatase inhibitor cocktail tablets (Roche). Immunoprecipitations were performed at 4° C. for 4 h, followed by three washes with lysis buffer and, in cases of subsequent kinase assay, one final wash with kinase buffer (25 mM Tris, pH 7.5, 10 mM MgCl2). […] The kinase reaction was terminated by adding sample buffer and boiling. Kinase activity was determined by immunoblotting for pMEK.

[3] = test system: ERK signaling (pMEK, pERK); test: ERK signaling (pMEK/pERK Western blot) in SKMEL-239 parental cells and PLX4032-resistant clones
Description: Western blotting and receptor tyrosine kinase (RTK) arrays. Western blot analysis was performed as previously described13. The following antibodies were used: p217/p221-MEK (pMEK), p202/p204-ERK (pERK), MEK, ERK, (Cell Signaling), V5 tag (Invitrogen), BRAF, cyclin Flag tag, β-actin (Sigma).

p61 BRAF(V600E/R509H) = p61 BRAF(V600E/R509H) (Homo sapiens, UniProt P15056, DEL169-380/R509H/V600E); test: ERK signaling in 293H cells expressing p61 BRAF(V600E/R509H); type: cell-based; conditions: 2 μM for 1 hour
Description: as §1

p61 BRAF(V600E) [4] = biological target: T1, p61 BRAF(V600E); test: ERK signaling in SKMEL-239 or HT-29 cells ectopically expressing p61 BRAF(V600E); type: cell-based; conditions: 1 hour
Description: as §1

[5] = test system: wild-type (+/+), BRAF−/− or CRAF−/− MEFs; test: MEK/ERK activation in wild-type, BRAF knockout or CRAF knockout MEFs; type: cell-based; conditions: indicated concentrations, 1 h
[6] = test system: HT-29 cells (colorectal; BRAF(V600E)) expressing HER2 (V654E); test: MEK/ERK in HT-29 cells transfected with activated HER2 (V654E); type: cell-based; conditions: various concentrations, 1 h
SKMEL-239 cells = test: Cell cycle and cell death (sub-G1 peak by FACS) in SKMEL-239 parental cells and resistant clones; type: cell-based, human
Description: (§2) For proliferation assays, cells were plated in 6-well plates, and 24 hours later were treated with varying concentrations of inhibitors, or vehicle control, as indicated. IC50 values were calculated using Graph Pad Prism v.5. For cell cycle and apoptosis studies, cells were seeded in 6-well dishes the day prior to drug treatment. For analysis, both adherent and floating cells were harvested and stained with ethidium bromide as described previously 21.

BRAF(V600E/R509H) = BRAF(V600E/R509H) (Homo sapiens, UniProt P15056, R509H/V600E); test: ERK signaling in 293H cells expressing the dimerization mutant BRAF(V600E/R509H); type: cell-based; conditions: 2 μM for 1 hour
Description: as §1

[7] = test system: HT-29 cells (colorectal; BRAF(V600E)) expressing NRAS(G12V); test: MEK/ERK in HT-29 cells transfected with HA-tagged NRAS(G12V); type: cell-based; conditions: various concentrations, 1 h
[8] = test system: PLX4032-resistant SKMEL-239 clones; test: Sensitivity of PLX4032-resistant SKMEL-239 clones to MEK inhibitor (5-day proliferation, pMEK/pERK dose-response); type: cell-based, human; conditions: all five resistant clones; slightly higher doses than in the parental cell line
Description: as §2

[9] = parental SKMEL-239, 2 μM PLX4032

T1 sequence (P15056 with tags, fused parts or gaps DEL169-380/V600E): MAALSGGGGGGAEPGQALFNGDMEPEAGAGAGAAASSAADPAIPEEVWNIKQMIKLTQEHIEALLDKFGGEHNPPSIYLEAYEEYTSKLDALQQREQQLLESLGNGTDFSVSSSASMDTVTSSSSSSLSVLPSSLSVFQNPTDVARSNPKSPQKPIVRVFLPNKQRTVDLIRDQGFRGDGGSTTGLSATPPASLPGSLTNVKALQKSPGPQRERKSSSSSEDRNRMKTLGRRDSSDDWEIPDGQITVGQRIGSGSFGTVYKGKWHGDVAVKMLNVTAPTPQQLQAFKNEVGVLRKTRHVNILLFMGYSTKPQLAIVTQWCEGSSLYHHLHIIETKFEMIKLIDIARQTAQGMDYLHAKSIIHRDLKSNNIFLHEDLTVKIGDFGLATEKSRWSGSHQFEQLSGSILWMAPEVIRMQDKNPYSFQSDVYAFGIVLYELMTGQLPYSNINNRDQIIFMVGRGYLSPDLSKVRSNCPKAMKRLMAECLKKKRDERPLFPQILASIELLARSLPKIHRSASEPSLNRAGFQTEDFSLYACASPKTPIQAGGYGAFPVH
Chain of p61 BRAF(V600E/R509H) (P15056 with tags, fused parts or gaps DEL169-380/R509H/V600E): as the sequence (P15056 with tags, fused parts or gaps DEL169-380/V600E) above, with R297H counted along it
Chain of BRAF(V600E/R509H) (P15056 whole entry R509H/V600E): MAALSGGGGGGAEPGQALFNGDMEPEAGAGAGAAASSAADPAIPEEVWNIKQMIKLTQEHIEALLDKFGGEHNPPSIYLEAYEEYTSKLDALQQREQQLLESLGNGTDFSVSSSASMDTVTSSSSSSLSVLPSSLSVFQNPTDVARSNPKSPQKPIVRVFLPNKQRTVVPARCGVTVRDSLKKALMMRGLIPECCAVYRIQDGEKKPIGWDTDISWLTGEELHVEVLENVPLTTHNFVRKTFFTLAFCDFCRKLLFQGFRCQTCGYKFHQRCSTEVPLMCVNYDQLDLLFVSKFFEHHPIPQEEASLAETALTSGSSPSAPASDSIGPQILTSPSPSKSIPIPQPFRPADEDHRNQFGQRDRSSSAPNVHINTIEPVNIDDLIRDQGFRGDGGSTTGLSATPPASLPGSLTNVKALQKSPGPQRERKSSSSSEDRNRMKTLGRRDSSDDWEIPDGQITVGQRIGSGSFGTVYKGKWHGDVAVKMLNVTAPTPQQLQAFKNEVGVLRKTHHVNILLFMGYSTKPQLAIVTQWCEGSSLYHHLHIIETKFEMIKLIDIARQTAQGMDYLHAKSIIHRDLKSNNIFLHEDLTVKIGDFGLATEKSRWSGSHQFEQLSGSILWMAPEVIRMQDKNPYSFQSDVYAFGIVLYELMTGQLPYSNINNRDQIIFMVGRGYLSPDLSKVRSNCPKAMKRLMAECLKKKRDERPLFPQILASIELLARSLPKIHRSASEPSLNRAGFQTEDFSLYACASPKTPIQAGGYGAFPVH

What does the source list for `CCCS(=O)(=O)Nc1ccc(F)c(C(=O)c2c[nH]c3ncc(-c4ccc(Cl)cc4)cc23)c1F` [PLX4032]?
sensitivity of ERK signaling (pMEK, pERK) (p61 BRAF(V600E) [1]): resistant; also recorded: insensitive; inhibition of kinase activity in vitro (pMEK Western blot) (p61 BRAF(V600E) [2]): can be inhibited in vitro; sensitivity of ERK signaling to the drug ([3]; PLX4032-resistant SKMEL-239 cells): decreased sensitivity; IC50 for pMEK inhibition relative to the parental cell line ([3]; SKMEL-239 C3 clone, 1 hour): more than 100 fold; pMEK IC50 relative to the parental clone ([3]; SKMEL-239 C5 clone, 1 hour): 4.5 fold; inhibition of ERK signaling [3, 9]: effectively inhibits ERK signaling; inhibition of ERK signaling (p61 BRAF(V600E/R509H)): inhibited; inhibition of ERK signaling (p61 BRAF(V600E) [4]; HT-29 cells expressing p61 BRAF(V600E)): failure of PLX4032 to effectively inhibit ERK signaling; inhibition of ERK signaling (p61 BRAF(V600E) [4]; parental SKMEL-239 cells expressing p61 BRAF(V600E)): failure of PLX4032 to effectively inhibit ERK signaling; MEK/ERK activation [5]: MEK/ERK activation does not require BRAF; sensitivity of MEK/ERK to RAF inhibitor [6]: insensitive; cell death (sub-G1 peak by FACS) (SKMEL-239 cells; five PLX4032-resistant SKMEL-239 clones): not in the five resistant clones; cell cycle effect (SKMEL-239 cells; [9]): accumulation of cells in G1; cell death (sub-G1 peak by FACS) (SKMEL-239 cells; parental SKMEL-239 cells): significant induction of cell death; also recorded: induced cell death; sensitivity of ERK signaling (BRAF(V600E/R509H)): remained sensitive; sensitivity of MEK/ERK to RAF inhibitor [7]: insensitive

`O=C(NOC[C@H](O)CO)c1ccc(F)c(F)c1Nc1ccc(I)cc1F` [PD032590113] was tested. Which “sensitivity to the MEK inhibitor” value [8] did it give?
Its value is “retained sensitivity”.
